# Source: paper PMC11589570, “Critical assessment of LC3/GABARAP ligands used for degrader development and ligandability of LC3/GABARAP binding pockets” (Nature Communications, 2024)
# Like-named read-outs stand apart in the source and are kept apart here.
# Target: LC3B (Homo sapiens, UniProt Q9GZQ8)
# Conditions: for CSP: LC3B:ligand molar ratio 1:2; for 3D Mapping code: molar ratio 1:2
smiles,measurement,setting,value
O=C1Nc2ccc(I)cc2C1=Cc1cc(Br)c(O)c(Br)c1 [compound 4],CSP,"LC3B residue M01, estimated",0.002 ppm
same,CSP,LC3B residue M60,0.024 ppm
same,3D Mapping code,LC3B residue M60,Light green (intermediate (SD < CSP <2xSD))
same,CSP,LC3B residue M111,0.018 ppm
same,3D Mapping code,LC3B residue M111,Light green (intermediate (SD < CSP <2xSD))
same,CSP,LC3B residue N59,0.072 ppm
same,3D Mapping code,LC3B residue N59,Orange (strong (2xSD <CSP))
same,CSP,LC3B residue N74,0.002 ppm
same,CSP,LC3B residue N76,0.00173 ppm
same,3D Mapping code,LC3B residue N84,Light green (intermediate (SD < CSP <2xSD))
same,CSP,"LC3B residue P02, estimated",0.002 ppm
same,CSP,"LC3B residue P28, estimated",0.016 ppm
same,3D Mapping code,"LC3B residue P28, CSP estimated",Light green (intermediate (SD < CSP <2xSD))
same,CSP,"LC3B residue P32, estimated",0.024 ppm
same,3D Mapping code,"LC3B residue P32, CSP estimated",Light green (intermediate (SD < CSP <2xSD))
same,CSP,"LC3B residue P45, estimated",0.005 ppm
same,CSP,"LC3B residue P55, estimated",0.025 ppm
same,3D Mapping code,"LC3B residue P55, CSP estimated",Light green (intermediate (SD < CSP <2xSD))
same,CSP,LC3B residue Q09,0.000424 ppm
same,CSP,LC3B residue Q15,0.00358 ppm
same,CSP,LC3B residue Q26,0.017 ppm
same,3D Mapping code,LC3B residue Q26,Light green (intermediate (SD < CSP <2xSD))
same,CSP,LC3B residue Q43,0.00371 ppm
same,CSP,LC3B residue Q72,0.009 ppm
same,CSP,LC3B residue Q77,0.005 ppm
same,CSP,LC3B residue Q116,0.00122 ppm
same,CSP,LC3B residue R10,0.005 ppm
same,CSP,LC3B residue R11,0.003 ppm
same,CSP,LC3B residue R16,0.013 ppm
same,CSP,LC3B residue R21,0.026 ppm
same,3D Mapping code,LC3B residue R21,Light green (intermediate (SD < CSP <2xSD))
same,CSP,LC3B residue R24,0.014 ppm
same,CSP,LC3B residue R37,0.016 ppm
same,CSP,LC3B residue R68,0.032 ppm
same,3D Mapping code,LC3B residue R68,Orange (strong (2xSD <CSP))
same,CSP,LC3B residue R69,0.020 ppm
same,3D Mapping code,LC3B residue R69,Light green (intermediate (SD < CSP <2xSD))
same,CSP,LC3B residue R70,0.032 ppm
same,3D Mapping code,LC3B residue R70,Orange (strong (2xSD <CSP))
same,CSP,"LC3B residue S03, estimated",0.002 ppm
same,CSP,LC3B residue S61,0.017 ppm
same,3D Mapping code,LC3B residue S61,Light green (intermediate (SD < CSP <2xSD))
same,3D Mapping code,LC3B residue S87,Orange (strong (2xSD <CSP))
same,3D Mapping code,LC3B residue S90,Orange (strong (2xSD <CSP))
same,3D Mapping code,LC3B residue S92,Orange (strong (2xSD <CSP))
same,CSP,LC3B residue S96,0.039 ppm
same,3D Mapping code,LC3B residue S96,Orange (strong (2xSD <CSP))
same,CSP,LC3B residue S101,0.011 ppm
same,CSP,LC3B residue S115,0.008 ppm
same,CSP,LC3B residue T06,0.00323 ppm
same,CSP,LC3B residue T12,0.00666 ppm
same,CSP,"LC3B residue T29, estimated",0.016 ppm
same,3D Mapping code,"LC3B residue T29, CSP estimated",Light green (intermediate (SD < CSP <2xSD))
same,CSP,LC3B residue T50,0.022 ppm
same,3D Mapping code,LC3B residue T50,Light green (intermediate (SD < CSP <2xSD))
same,3D Mapping code,LC3B residue T93,Orange (strong (2xSD <CSP))
same,CSP,LC3B residue T118,0.005 ppm
same,CSP,LC3B residue V17,0.009 ppm
same,CSP,LC3B residue V20,0.010 ppm
same,CSP,LC3B residue V33,0.029 ppm
same,3D Mapping code,LC3B residue V33,Light green (intermediate (SD < CSP <2xSD))
same,CSP,LC3B residue V46,0.008 ppm
same,CSP,LC3B residue V54,0.049 ppm
same,3D Mapping code,LC3B residue V54,Orange (strong (2xSD <CSP))
same,CSP,LC3B residue V58,0.034 ppm
same,3D Mapping code,LC3B residue V58,Orange (strong (2xSD <CSP))
same,3D Mapping code,LC3B residue V83,Orange (strong (2xSD <CSP))
same,3D Mapping code,LC3B residue V89,Light green (intermediate (SD < CSP <2xSD))
same,3D Mapping code,"LC3B residue V91, CSP estimated",Orange (strong (2xSD <CSP))
same,CSP,LC3B residue V98,0.013 ppm
same,CSP,LC3B residue V112,0.027 ppm
same,3D Mapping code,LC3B residue V112,Light green (intermediate (SD < CSP <2xSD))
same,CSP,LC3B residue Y38,0.00356 ppm
same,CSP,LC3B residue Y99,0.00251 ppm
same,CSP,LC3B residue Y110,0.037 ppm
same,3D Mapping code,LC3B residue Y110,Orange (strong (2xSD <CSP))
same,CSP,LC3B residue Y113,0.013 ppm
same,CSP induced,"N59 HN resonance, molar ratio 10O5:LC3B 1",0.03127
same,CSP induced,"N59 HN resonance, molar ratio 10O5:LC3B 2",0.08027
same,CSP induced,"N59 HN resonance, molar ratio 10O5:LC3B 8",0.1884
same,CSP induced,"S90 HN resonance, molar ratio 10O5:LC3B 1",0.01709
same,CSP induced,"S90 HN resonance, molar ratio 10O5:LC3B 2",0.04125
same,CSP induced,"S90 HN resonance, molar ratio 10O5:LC3B 8",0.08089
same,CSP induced,"Y110 HN resonance, molar ratio 10O5:LC3B 1",0.0222
same,CSP induced,"Y110 HN resonance, molar ratio 10O5:LC3B 2",0.03845
same,CSP induced,"Y110 HN resonance, molar ratio 10O5:LC3B 8",0.0862
